In ChEMBL document CHEMBL1201862, “PubChem BioAssay data set” (2004):
Calls of active or inactive are those of the source.

Experiments:
[1] = intracellular Trypanosoma cruzi inhibitors in host cells – cell-based, plate reader, cherry-pick samples, set 3, dose response (AID 651818); format: functional;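 also: compounds incubated with infected cells for about four days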
Kallikrein-7 = Kallikrein-7 (Homo sapiens, UniProt P49862); experiment: Fluorescence Intensity-based biochemical primary high throughput dose response assay to identify activators of kallikrein-7 (K7) zymogen.
cells [2] = format: functional, cell-based
[3] = target: T1, Trace amine-associated receptor 1 (Homo sapiens, UniProt Q96RJ0); experiment: Fluorescence-based cell-based high throughput dose response assay to identify agonists of the human trace amine associated receptor 1 (TAAR1).; format: functional
T1 sequence (Q96RJ0 whole entry): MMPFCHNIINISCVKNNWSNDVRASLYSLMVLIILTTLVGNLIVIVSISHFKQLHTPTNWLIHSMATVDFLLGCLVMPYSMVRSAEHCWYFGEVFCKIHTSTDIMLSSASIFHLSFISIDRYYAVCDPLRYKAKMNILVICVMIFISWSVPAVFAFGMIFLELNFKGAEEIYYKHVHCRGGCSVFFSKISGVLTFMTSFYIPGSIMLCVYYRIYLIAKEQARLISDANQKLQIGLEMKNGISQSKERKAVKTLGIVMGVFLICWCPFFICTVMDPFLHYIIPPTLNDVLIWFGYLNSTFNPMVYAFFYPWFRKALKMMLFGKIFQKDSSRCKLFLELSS

cells [4] = format: functional, cell-based; remark: listed apart in the source
[5] = target: T2, Corticotropin-releasing factor receptor 2/Corticotropin-releasing factor-binding protein (Homo sapiens, UniProt P24387+Q13324); experiment: activators of CRF receptor 2 with binding protein – uHTS hits, confirmation (AID 602473); format: functional; conditions: read-out: EC50_Mean
T2 sequence (Q13324 whole entry): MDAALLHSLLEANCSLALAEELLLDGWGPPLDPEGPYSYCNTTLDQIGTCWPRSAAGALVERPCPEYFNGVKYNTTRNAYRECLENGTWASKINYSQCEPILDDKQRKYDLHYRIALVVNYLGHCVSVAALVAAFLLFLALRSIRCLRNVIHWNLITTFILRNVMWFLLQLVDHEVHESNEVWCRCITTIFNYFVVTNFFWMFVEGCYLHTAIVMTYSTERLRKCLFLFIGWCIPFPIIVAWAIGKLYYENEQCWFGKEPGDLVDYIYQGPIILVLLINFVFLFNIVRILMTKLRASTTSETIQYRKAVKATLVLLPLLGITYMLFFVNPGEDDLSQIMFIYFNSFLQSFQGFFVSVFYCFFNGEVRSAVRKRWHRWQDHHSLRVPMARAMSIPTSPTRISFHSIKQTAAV
T2 sequence (P24387 whole entry): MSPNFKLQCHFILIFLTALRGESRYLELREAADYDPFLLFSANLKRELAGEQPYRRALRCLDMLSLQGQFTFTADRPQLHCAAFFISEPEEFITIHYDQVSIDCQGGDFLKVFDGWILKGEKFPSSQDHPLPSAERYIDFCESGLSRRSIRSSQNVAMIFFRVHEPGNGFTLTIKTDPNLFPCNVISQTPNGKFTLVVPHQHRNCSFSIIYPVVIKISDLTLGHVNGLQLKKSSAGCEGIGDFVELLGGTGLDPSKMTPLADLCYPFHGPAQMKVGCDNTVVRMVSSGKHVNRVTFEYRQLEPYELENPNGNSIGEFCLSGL

[6] = target: T1, Trace amine-associated receptor 1; experiment: Counterscreen for agonists of the human trace amine associated receptor 1 (hTAAR1): Fluorescence-based cell-based high throughput dose response assay to identify hTAAR1 agonist that also desensitize TAAR1 receptor response.; format: functional
[7] = target: T2, Corticotropin-releasing factor receptor 2/Corticotropin-releasing factor-binding protein; experiment: Dose Response confirmation of uHTS hits for small molecule antagonists of the CRF-binding protein and CRF-R2 receptor complex.; format: functional; conditions: read-out: IC50_Mean
[8] = general cell-killing toxicity readout – plate reader, dry powder samples, cytotoxicity control for PAX8 inhibitor project, dose response (AID 743021); format: functional, cell-based
[9] = OVCAR8 cell viability loss – plate reader, dry powder samples, PAX8 project, dose response (AID 743197); format: functional, cell-based; conditions: OVCAR-8
Paired box protein Pax-8 = Paired box protein Pax-8 (Homo sapiens, UniProt Q06710); experiment: PAX8 transcriptional activity inhibition in RMG-I – RMG-I cells, luciferase, cherry-pick, dose response (AID 687027); format: functional, cell-based;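 also: luciferase reporter driven by Pax8 target thyroperoxidase promoter measured by SteadyGlo luminescence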
Vero = experiment: mammalian cell viability reduction – secondary assay, cytotoxicity control for West Nile virus antiviral project, dose response (AID 1650); format: functional, Chlorocebus sabaeus; conditions: Chlorocebus sabaeus, Vero
[10] = OVCAR-3 cell viability loss – plate reader, dry powder samples, PAX8 inhibitor project, dose response (AID 743044); format: functional, cell-based
[11] = target: T3, Histone-lysine N-methyltransferase NSD2 (Homo sapiens, UniProt O96028); format: biochemical
T3 sequence (O96028 whole entry): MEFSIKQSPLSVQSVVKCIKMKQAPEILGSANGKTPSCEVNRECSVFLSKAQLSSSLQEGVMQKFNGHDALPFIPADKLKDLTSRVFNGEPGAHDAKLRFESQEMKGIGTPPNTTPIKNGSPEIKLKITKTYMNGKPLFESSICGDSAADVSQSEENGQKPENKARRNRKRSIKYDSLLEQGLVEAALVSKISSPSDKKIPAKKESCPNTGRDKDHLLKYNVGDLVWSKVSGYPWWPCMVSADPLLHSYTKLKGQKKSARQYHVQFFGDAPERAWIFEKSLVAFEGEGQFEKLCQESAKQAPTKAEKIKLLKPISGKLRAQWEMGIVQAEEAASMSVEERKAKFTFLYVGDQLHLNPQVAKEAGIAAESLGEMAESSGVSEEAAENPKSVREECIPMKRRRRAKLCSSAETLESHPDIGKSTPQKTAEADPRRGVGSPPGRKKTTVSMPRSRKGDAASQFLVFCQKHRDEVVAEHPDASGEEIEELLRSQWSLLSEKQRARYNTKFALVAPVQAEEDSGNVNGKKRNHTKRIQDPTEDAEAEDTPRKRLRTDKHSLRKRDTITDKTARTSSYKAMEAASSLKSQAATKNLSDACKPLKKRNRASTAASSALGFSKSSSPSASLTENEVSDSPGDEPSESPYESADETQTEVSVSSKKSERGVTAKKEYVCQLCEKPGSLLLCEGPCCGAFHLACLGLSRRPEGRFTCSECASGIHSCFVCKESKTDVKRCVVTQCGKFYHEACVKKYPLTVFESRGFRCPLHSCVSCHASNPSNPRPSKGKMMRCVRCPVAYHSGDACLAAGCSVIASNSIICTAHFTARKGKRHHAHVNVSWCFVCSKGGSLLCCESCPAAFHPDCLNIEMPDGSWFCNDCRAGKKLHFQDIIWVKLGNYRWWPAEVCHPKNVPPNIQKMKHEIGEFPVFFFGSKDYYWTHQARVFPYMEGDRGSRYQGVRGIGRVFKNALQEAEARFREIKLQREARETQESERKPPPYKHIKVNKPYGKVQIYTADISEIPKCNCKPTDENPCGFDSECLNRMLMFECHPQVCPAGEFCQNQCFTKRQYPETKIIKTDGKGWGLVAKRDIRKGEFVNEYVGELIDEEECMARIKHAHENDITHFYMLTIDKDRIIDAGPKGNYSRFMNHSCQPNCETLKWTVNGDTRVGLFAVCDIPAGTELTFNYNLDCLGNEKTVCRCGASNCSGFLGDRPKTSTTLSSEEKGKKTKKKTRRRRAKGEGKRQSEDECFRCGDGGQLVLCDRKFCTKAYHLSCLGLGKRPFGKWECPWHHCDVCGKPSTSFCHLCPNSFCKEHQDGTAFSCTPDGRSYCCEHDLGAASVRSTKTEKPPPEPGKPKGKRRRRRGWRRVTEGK

Large T antigen = Large T antigen (Simian virus 40, UniProt P03070); format: functional, Betapolyomavirus macacae;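 also: Confirmatory-stage PubChem screen for compounds that inhibit SV40 T antigen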
[12] = target: Induced myeloid leukemia cell differentiation protein Mcl-1 (Homo sapiens, UniProt Q07820); format: functional
[13] = viability of PTEN-deleted HCT116 cells – cell-based, HCT116 PTEN knockout, dose response (AID 1047); format: functional;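 also: HCT116 colon tumor cells with PTEN knocked out; cells exposed to compound for 60 hours before readout; potency for loss of cell viability measured by luminescence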
[14] = viability of HCT116 lacking mutant beta-catenin – cell-based, human colon tumor, dose response (AID 1045); format: functional;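 also: HCT116 colon tumor cells with beta catenin knocked out; cells exposed to compound for 60 hours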
[15] = target: T4, High affinity choline transporter 1 (Homo sapiens, UniProt Q9GZV3); experiment: human choline transporter blockers, potency – cell-based, 5-point CRC, membrane potential dye, dose response (AID 504840); format: functional
T4 sequence (Q9GZV3 whole entry): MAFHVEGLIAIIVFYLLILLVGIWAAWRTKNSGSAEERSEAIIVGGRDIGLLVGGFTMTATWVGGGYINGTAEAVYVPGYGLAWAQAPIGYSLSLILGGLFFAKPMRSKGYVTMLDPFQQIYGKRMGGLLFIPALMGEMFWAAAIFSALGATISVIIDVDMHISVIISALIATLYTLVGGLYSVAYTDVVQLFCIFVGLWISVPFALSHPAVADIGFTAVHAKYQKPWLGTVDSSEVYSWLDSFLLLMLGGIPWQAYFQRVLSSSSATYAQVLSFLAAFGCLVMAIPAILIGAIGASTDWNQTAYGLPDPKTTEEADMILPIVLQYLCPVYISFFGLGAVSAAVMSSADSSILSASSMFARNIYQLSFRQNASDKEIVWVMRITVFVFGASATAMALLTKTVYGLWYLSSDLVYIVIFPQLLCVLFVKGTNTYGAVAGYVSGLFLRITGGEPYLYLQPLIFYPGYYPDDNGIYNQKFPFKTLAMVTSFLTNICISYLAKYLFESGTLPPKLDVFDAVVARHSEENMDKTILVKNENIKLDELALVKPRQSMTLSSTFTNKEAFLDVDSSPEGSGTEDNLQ

[16] = target: T5, Ubiquitin-conjugating enzyme E2 N (Homo sapiens, UniProt P61088); format: functional;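 also: Dose-response confirmation in a TR-FRET assay detecting UBC13-driven polyubiquitin chain formation, inhibition measured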
T5 sequence (P61088 whole entry): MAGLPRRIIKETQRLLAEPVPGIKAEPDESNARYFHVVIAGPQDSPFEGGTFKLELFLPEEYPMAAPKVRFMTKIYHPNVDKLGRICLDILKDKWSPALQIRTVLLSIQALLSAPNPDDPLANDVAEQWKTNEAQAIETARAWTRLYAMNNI

Kallikrein-7, sequence (P49862 whole entry): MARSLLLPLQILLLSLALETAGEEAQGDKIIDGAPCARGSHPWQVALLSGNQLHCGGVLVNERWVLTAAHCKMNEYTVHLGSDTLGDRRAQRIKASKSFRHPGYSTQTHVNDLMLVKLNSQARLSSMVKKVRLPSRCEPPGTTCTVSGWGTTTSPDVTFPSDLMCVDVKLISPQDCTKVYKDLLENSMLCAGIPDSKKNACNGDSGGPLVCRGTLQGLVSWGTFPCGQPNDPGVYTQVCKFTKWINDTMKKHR
Paired box protein Pax-8, sequence (Q06710 whole entry): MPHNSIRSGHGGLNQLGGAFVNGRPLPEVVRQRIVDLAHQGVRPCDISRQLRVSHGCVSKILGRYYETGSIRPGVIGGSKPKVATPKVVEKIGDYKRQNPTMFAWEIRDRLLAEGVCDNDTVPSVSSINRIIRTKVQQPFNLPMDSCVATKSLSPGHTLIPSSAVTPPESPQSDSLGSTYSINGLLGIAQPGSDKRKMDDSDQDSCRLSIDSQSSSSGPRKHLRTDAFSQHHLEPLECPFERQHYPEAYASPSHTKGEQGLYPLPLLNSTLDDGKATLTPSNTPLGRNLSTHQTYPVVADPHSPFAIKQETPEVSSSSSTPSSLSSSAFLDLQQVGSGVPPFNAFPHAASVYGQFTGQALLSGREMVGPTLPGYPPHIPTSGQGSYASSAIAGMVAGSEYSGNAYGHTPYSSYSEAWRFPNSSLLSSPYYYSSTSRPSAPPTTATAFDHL
Large T antigen, sequence (P03070 whole entry): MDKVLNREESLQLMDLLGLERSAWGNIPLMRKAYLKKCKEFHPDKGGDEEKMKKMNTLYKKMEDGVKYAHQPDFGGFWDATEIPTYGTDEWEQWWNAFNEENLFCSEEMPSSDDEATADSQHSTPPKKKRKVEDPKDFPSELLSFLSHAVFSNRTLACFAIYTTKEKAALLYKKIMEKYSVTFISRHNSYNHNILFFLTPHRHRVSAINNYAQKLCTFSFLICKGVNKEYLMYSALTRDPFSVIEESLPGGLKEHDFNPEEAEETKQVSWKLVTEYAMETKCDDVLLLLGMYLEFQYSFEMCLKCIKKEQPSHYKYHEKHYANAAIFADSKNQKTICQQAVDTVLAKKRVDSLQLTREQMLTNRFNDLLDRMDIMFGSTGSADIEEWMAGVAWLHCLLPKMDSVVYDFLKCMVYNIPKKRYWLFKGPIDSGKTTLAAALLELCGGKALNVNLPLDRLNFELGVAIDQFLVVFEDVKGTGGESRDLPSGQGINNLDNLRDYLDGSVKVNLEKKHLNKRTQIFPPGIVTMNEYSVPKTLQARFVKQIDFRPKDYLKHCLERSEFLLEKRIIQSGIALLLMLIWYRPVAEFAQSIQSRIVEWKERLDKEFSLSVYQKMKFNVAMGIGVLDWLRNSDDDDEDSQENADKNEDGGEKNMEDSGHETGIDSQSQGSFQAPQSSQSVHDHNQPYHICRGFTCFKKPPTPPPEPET
Induced myeloid leukemia cell differentiation protein Mcl-1, sequence (Q07820 whole entry): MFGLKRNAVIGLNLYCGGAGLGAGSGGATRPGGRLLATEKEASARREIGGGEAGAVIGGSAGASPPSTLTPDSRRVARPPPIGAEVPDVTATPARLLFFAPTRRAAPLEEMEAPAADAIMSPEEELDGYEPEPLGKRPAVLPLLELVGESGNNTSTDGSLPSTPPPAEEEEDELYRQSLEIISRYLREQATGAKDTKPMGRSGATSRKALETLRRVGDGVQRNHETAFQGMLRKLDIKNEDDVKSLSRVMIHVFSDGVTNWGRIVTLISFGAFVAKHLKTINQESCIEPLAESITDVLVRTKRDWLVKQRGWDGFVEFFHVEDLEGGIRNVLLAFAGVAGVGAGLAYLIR

## C[C@H]1CN([C@@H](C)CO)C(=O)Cc2cc(NC(=O)C3CC3)ccc2O[C@@H]1CN(C)Cc1ccc(C(F)(F)F)cc1
[1]
  AC50: 3.25 µM (active)

## Cc1cc(NCCCCO)n2c(nc3ccccc32)c1C#N
Kallikrein-7
  EC50: > 69.5 µM (inactive)

## CN1C(=O)NC(c2ccccc2)C2=C1CN(CCc1ccccc1)C2=O (stereo not drawn)
Cells [2]
  EC50: > 29.9 µM (inactive)
[3]
  EC50: 1.03 µM (active)
Cells [4]
  IC50: > 29.9 µM (inactive)
[5]
  EC50: > 53 µM (inactive)
[6]
  IC50: 5.74 µM (active)
[7]
  IC50: > 47.1 µM (inactive)

## Cc1noc(C)c1S(=O)(=O)Nc1ccc2c(c1)C(=O)N([C@H](C)CO)C[C@H](C)[C@@H](CN(C)Cc1ccc(C(=O)Nc3ccccc3N)cc1)O2
[1]
  AC50: 1.4 µM (active)

## CNCCc1ccccn1
Cells [2]
  EC50: > 29.9 µM (inactive)
[3]
  EC50: 1.24 µM (active)
Cells [4]
  IC50: > 29.9 µM (inactive)
[6]
  IC50: 6.02 µM (active)

## CC(C)Nc1nc(-c2ccccc2CO)c2sccc2n1
Kallikrein-7
  EC50: > 69.6 µM (inactive)

## COc1ccc(CN(C)C[C@@H]2OCCCC[C@H](C)Oc3ccc(NS(=O)(=O)c4ccc(C)cc4)cc3C(=O)N([C@H](C)CO)C[C@H]2C)cc1
[8]
  AC50: 64.6 µM (active)
[9]
  AC50: 44.6 µM (active)
Paired box protein Pax-8
  AC50: 16.8 µM (active)

## C[C@@H]1CN([C@@H](C)CO)C(=O)c2cccc(NC(=O)c3ccc(-c4nccs4)cc3)c2O[C@H]1CN(C)CC1CCCCC1
[1]
  AC50: 4.06 µM (active)

## Cn1c(=O)[nH]c(=O)c2c1nc(N1CCCCC1)n2CCCSc1nc2ccccc2s1
Vero
  CC50: > 100 µM (active)

## C[C@@H]1CCCCO[C@H](CN(C)Cc2ccccc2)[C@@H](C)CN([C@@H](C)CO)C(=O)c2cc(NC(=O)Nc3ccc(C(F)(F)F)cc3)ccc2O1
[10]
  AC50: 44.5 µM (active)
[9]
  AC50: 33.6 µM (active)
Paired box protein Pax-8
  AC50: 19 µM (active)

## CN(C)c1cccc2c(S(=O)(=O)NC(=O)[C@H]3O[C@@H](n4cnc5c(N)ncnc54)[C@H](O)[C@@H]3O)cccc12
Kallikrein-7
  EC50: 8.16 µM (active)

## O=c1c2ccccc2nc(COc2ccccc2)n1/N=C/c1ccc(O)c(O)c1
[11]
  AC50: 8.78 µM (active)
Large T antigen
  IC50: 11.7 µM (active)

## C[C@@H]1CN([C@H](C)CO)S(=O)(=O)c2ccc(C#Cc3ccncc3)cc2O[C@H]1CN(C)C(=O)C1CCCCC1
[10]
  AC50: 17.1 µM (active)
Paired box protein Pax-8
  AC50: 3.13 µM (active)

## COc1cccc(Nc2nc(C(N)COCc3ccccc3)cs2)n1 (stereo not drawn)
Cells [2]
  EC50: 22.2 µM (inactive)
[3]
  EC50: 2.55 µM (active)
Cells [4]
  IC50: 21.9 µM (inactive)
[6]
  IC50: 8.79 µM (active)

## Cc1ccc(S(=O)(=O)Nc2ccc3c(c2)CC(=O)N([C@@H](C)CO)C[C@@H](C)[C@@H](CN(C)Cc2ccc(Oc4ccccc4)cc2)O3)cc1
[1]
  AC50: 4.9 µM (active)

## Cc1cc(C(=O)CN2C(=O)C(=O)N(C3CCCC3)C2=O)c(C)n1CCc1ccccc1
Cells [2]
  EC50: > 29.9 µM (inactive)
[3]
  EC50: 1.89 µM (active)
Cells [4]
  IC50: > 29.9 µM (inactive)
[6]
  IC50: 3.28 µM (active)

## CCN=c1ccc(Br)cc(C(=O)/C=C/c2c(Cl)cccc2Cl)c1O
[12]
  IC50: 2.32 µM (active)
Vero
  CC50: > 100 µM (active)
[13]
  EC50: 1.92 µM (active)
[14]
  EC50: 1.67 µM (active)

## O=C(N/N=C/c1ccc(-c2cccc(Cl)c2)o1)c1ccccn1
[1]
  AC50: 0.15 µM (active)

## C[C@@H]1CCCCO[C@H](CN(C)Cc2ccc(Cl)c(Cl)c2)[C@@H](C)CN([C@H](C)CO)C(=O)c2cc(NC(=O)Nc3cccc4ccccc34)ccc2O1
[1]
  AC50: 3.72 µM (active)

## c1ccc(CCNc2ncnc3[nH]cnc23)cc1
Cells [2]
  EC50: > 29.9 µM (inactive)
[3]
  EC50: 3.94 µM (active)
Cells [4]
  IC50: > 29.9 µM (inactive)
[6]
  IC50: 8.92 µM (active)

## NC(=O)CCCn1c(C(=O)c2cc(Cl)c(N)c(Cl)c2)c2ccc([N+](=O)[O-])cc2[n+]1[O-]
[15]
  IC50: 12.3 µM (active)
[16]
  IC50: > 20 µM (inactive)
